This is an account of results in PubChem BioAssay (NCI).

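Where inhibition never reached the appropriate level, the endpoint shown equals the highest concentration tested. Otherwise, values were interpolated linearly from a five-concentration, 48-hour dose response in 96-well plates. GI50 is the concentration that inhibits growth by half. TGI: concentration producing complete growth inhibition.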 Where only a bound is given, the exact number is not on record here.

Common to all, as to assay: inhibition of tumour cell growth, NCI panel, 48 h
For test [1], the system named is RXF 393 renal.
Test [2] concerns OVCAR-5 ovarian.
Test [3] relates to MDA-MB-231 breast.
The subject of test [4] is ACHN renal.
In test [5] the test system is KM12 colon.
Test [6] relates to BT-549 breast.
For test [7], the system named is SK-MEL-2 melanoma.
Test [8] deals with HT29 colon.
For test [9], the system named is MALME-3M melanoma.
Test [10] concerns SR leukemia.

As to `CCN(C(=O)CN1CCN(c2cc3c(cc2F)c(=O)c(C(=O)O)cn3CC)CC1)c1nc(-c2ccccc2)cs1`, the GI50 in [1] was 0.381 µM; in test [2], 0.505 µM; in test [3] it was 0.442 µM; in [4] it was 0.33 µM; in test [5] it was 0.393 µM; in test [6], 0.344 µM. In addition, the GI50 in test [7] was 0.248 µM; in test [8], 0.301 µM; in test [9], 0.214 µM. The TGI in [1], in [2], in test [3], in [4], in test [5] and in test [6] was above 100 µM in each case. The TGI in test [7] was 0.692 µM; in [8] it was above 100 µM; in test [9], 0.66 µM.

Regarding `COc1ccc(Oc2ccccc2NC(=O)CNC(=O)c2cccc3ccccc23)cc1`, the GI50 in [1] is 0.494 µM; in test [2], 1.98 µM; in test [3] it was 2.25 µM; in test [4] it was 1.53 µM; in [5], 0.577 µM; in [10], 0.166 µM. Further, the results for the GI50 in test [6], in test [8] and in test [9] were 1.12 µM, 0.576 µM and above 25 µM, respectively. The TGI in test [1], in test [2], in [3], in [4], in [5] and in test [10] was above 25 µM each time. In addition, the TGI in [6] is above 25 µM; in [8], 19.4 µM; in test [9] it was above 25 µM.

As to `Brc1cccc(-c2cc(-c3ccc4nccnc4c3)[nH]n2)c1`, the GI50 in test [2] was 2.64 µM; in test [3], 2.94 µM; in [4], 1.72 µM; in test [5], 0.153 µM; in test [10], 0.139 µM; in [6], 2.15 µM. Further, the results for the GI50 in [7], in test [8] and in test [9] were 1.55 µM, 0.174 µM and 1.3 µM, respectively. In addition, the TGI in [2] was above 250 µM; in test [3] it was 23.7 µM; in [4] it was above 250 µM; in test [5], above 94.7 µM; in test [10], above 104 µM; in test [6], above 250 µM. Further, the TGI was above 250 µM in test [7], above 165 µM in test [8] and above 250 µM in [9].

Take `O=C(Nc1ccccc1Cl)c1cccc(NC2=C(Cl)C(=O)N(Cc3ccccc3)C2=O)c1`: the GI50 in test [1] is 52.5 µM; in [2] it was above 100 µM; in [3], 17.1 µM; in [4], 60.5 µM; in test [5] it was 0.0371 µM; in [10] it was 1.12 µM. In addition, the GI50 is 22.5 µM in test [6] and 19.8 µM in [8]. The TGI in test [1] was above 100 µM; in test [2], above 100 µM; in [3], 69.7 µM; in [4] it was above 100 µM; in [5] it was 9.86 µM; in test [10] it was 3.39 µM. Further, the TGI is above 100 µM in test [6], 6.38 µM in test [7] and above 100 µM in test [8].

With `CN1CCN(c2cc3nc4ccccc4n(-c4ccc(Cl)cc4)c-3cc2=N)CC1`, the GI50 in [1] is 20.3 µM; in [2], 24.1 µM; in test [3] it was 10.6 µM; in test [4] it was 23.4 µM; in [5], 16.6 µM; in test [6], 41.6 µM. For the same compound, the GI50 in [7] was 33.7 µM; in [8], above 100 µM; in test [9], 17.2 µM. The TGI in [1] was 99.8 µM; in test [2], 60.8 µM; in [3] it was 49.9 µM; in test [4] it was above 100 µM; in test [5], 43.8 µM; in [6], above 100 µM. Further, the results for the TGI in test [7], in [8] and in test [9] were above 100 µM, above 100 µM and 33.1 µM, respectively.

In the case of `Nc1n[nH]c2ccc([C@@H]3Nc4cc5[nH]ncc5cc4[C@H]4C5CCC(C5)[C@@H]34)cc12` (stereo partly specified), the GI50 in [2] was 0.565 µM; in [3], 0.764 µM; in test [4], 0.723 µM; in [5], 0.393 µM; in test [10] it was 0.564 µM; in test [6] it was 0.725 µM. The GI50 is 0.736 µM in test [7] and 0.367 µM in test [8]. In addition, the TGI in test [2] is above 80.9 µM; in test [3], 98.1 µM; in test [4] it was 53.5 µM; in [5] it was 19.1 µM; in [10], above 100 µM; in [6] it was above 46 µM. For the same compound, the TGI in test [7] is above 70.5 µM; in test [8], above 44.3 µM.

For the compound `COc1ccc2c(c1)C(=O)c1c-2c(N2CCNCC2)nc2ccccc12`, the GI50 in test [2] was 14.4 µM; in test [3], 3.21 µM; in test [4], 2.78 µM; in test [5], 2.01 µM; in [6], 3.4 µM; in test [7], 4.62 µM. In addition, the figures for the GI50 in test [8] and in test [9] were 1.49 µM and 1.79 µM, respectively. The TGI in test [2] was 30.2 µM; in test [3], 11.1 µM; in test [4], 8.24 µM; in test [5] it was 4.84 µM; in test [6] it was 11.4 µM; in test [7] it was 21.2 µM. Further, the TGI in test [8] was 3.34 µM; in test [9], 4.34 µM.

As for `COc1cccc(C2C(C#N)=C(N)Oc3c2ccc2ccccc32)c1` (stereo unspecified), the GI50 in test [1] is below 0.0161 µM; in [2], 0.0801 µM; in [3], 0.0433 µM; in test [4], below 0.01 µM; in [5], below 0.0116 µM; in [10], below 0.01 µM. The values for the GI50 in [6], in test [7] and in test [8] were 0.029 µM, 0.0588 µM and 0.0926 µM, respectively. For the same compound, the TGI was 0.975 µM in [1]; 19.8 µM in test [2]; 16.3 µM in test [3]; 13.4 µM in [4]; 2.26 µM in [5]; above 66.7 µM in test [10]. Also, the TGI in [6] was determined as 12.1 µM; in [7], 16.5 µM; in test [8], 4.71 µM.

In the case of `O=C(NN1C(=O)CSC1c1ccc(F)cc1)C(O)c1ccccc1` (stereo unspecified), the GI50 is above 100 µM in test [1]; above 100 µM in test [2]; 67.6 µM in test [3]; 91.5 µM in test [4]; above 100 µM in [5]; 60.8 µM in test [10]. Also, the GI50 in test [6], in [7] and in test [8] was above 100 µM throughout. Moreover, the TGI in test [1], in test [2], in test [3], in test [4], in test [5] and in [10] was above 100 µM in each case. Besides, the TGI in test [6], in test [7] and in test [8] was above 100 µM in each case.

In the case of `Cc1ccc(Sc2oc(-c3ccc(C)cc3)nc2[P+](c2ccccc2)(c2ccccc2)c2ccccc2)cc1`, the GI50 in test [1] is 0.316 µM; in [2] it was 0.416 µM; in test [3], 0.28 µM; in [4], 0.311 µM; in [5], 0.338 µM; in test [6] it was 0.365 µM. Moreover, the GI50 is 1.12 µM in test [7], 0.294 µM in test [8] and 0.241 µM in [9]. Also, the TGI in [1] came out at 1.33 µM; in test [2], 1.59 µM; in test [3], 1.03 µM; in test [4], 1.16 µM; in [5], 1.3 µM; in [6], 1.37 µM. The TGI was found to be 2.63 µM in test [7], 1.15 µM in [8] and 0.813 µM in test [9].

On to `Nc1cc2cccc[n+]2c2cccc(Cl)c12`, for which the GI50 in [3] is 17 µM; in test [4], 41.8 µM; in test [5], 4.1 µM; in test [10], 5.58 µM; in test [6], 16.1 µM; in [7], 10.7 µM. In addition, the GI50 in [8] was 56.2 µM; in test [9], 3.21 µM. The TGI was 65.2 µM in test [5]; 51.2 µM in test [10]; 48.8 µM in test [6]; 28.1 µM in test [7]; 13.5 µM in test [9].

For the compound `CCSc1nc(N)c(C#N)c(-c2ccco2)c1C#N`, the GI50 in [1] is 56.4 µM; in [2] it was above 100 µM; in test [3], above 100 µM; in [4], 16.9 µM; in [5], 27.4 µM; in test [10] it was 20.2 µM. Moreover, the values for the GI50 in test [6], in [7] and in [8] were 32.3 µM, above 100 µM and 56.4 µM, respectively. Moreover, the TGI in test [1] is above 100 µM; in test [2] it was above 100 µM; in test [3], above 100 µM; in test [4] it was 69.2 µM; in test [5], above 100 µM; in test [10] it was above 100 µM. Further, the TGI in test [6], in test [7] and in [8] was above 100 µM throughout.

Turning to `CCOC1OC(=O)[C@H]2[C@@H]1[C@@H]1CC[C@H]2O1` (stereo partly specified), the GI50 in test [1] is above 100 µM; in test [2] it was above 100 µM; in test [3], above 100 µM; in [4], above 100 µM; in test [5] it was above 76.2 µM; in test [10], 33.8 µM. Besides, the GI50 was above 100 µM in test [6], above 100 µM in test [7] and 24.8 µM in test [8]. For the same compound, the TGI in [1], in test [2], in test [3], in test [4], in [5] and in [10] was above 100 µM in each case. The TGI in test [6] was above 100 µM; in test [7], above 100 µM; in test [8], above 76.3 µM.

In the case of `CC1=C(C(=O)Nc2ccc(F)c(Cl)c2)C(c2ccccc2O)NC(=O)N1` (stereo unspecified), the GI50 is above 100 µM in test [1]; above 100 µM in test [2]; 27.4 µM in test [3]; above 100 µM in [4]; 70.9 µM in [5]; 71.5 µM in [6]. Further, the GI50 in test [7] was above 100 µM; in test [8] it was 41.4 µM. Further, the TGI in test [1], in test [2], in test [3], in test [4], in [5] and in test [6] was above 100 µM throughout. In addition, the TGI in test [7] and in test [8] was above 100 µM in each case.

Turning to `N#CC(C#N)=C(N)/C(C#N)=C/c1ccc2[nH]ccc2c1`, the TGI in test [1], in test [2], in test [4], in test [5], in test [10] and in [6] was above 100 µM throughout. The TGI in test [7], in [8] and in [9] was above 100 µM in each case.

On to `O=c1c(-c2ccccc2)coc2cc(OC/C(=N/O)c3ccc(F)cc3)ccc12`, for which the GI50 in [1] is 17.7 µM; in test [2], 18.1 µM; in [3] it was 19.6 µM; in test [4] it was 22.4 µM; in [5] it was 14.5 µM; in test [6], 20.3 µM. Also, the GI50 in test [8] is 27.8 µM; in [9] it was 10.1 µM. For the same compound, the TGI in test [1] is 37.5 µM; in test [2], 43.8 µM; in [3] it was 43.4 µM; in test [4], 43.5 µM; in [5] it was 33.1 µM; in [6], 41.8 µM. Further, the TGI in [8] is above 100 µM; in test [9], 31.9 µM.

In the case of `Cc1cc(NC(=O)c2cnc(N3CCN(CCOCCOCCOCCOCCC(=O)N[C@H](C(=O)N4C[C@H](O)C[C@H]4C(=O)N[C@@H](C)c4ccc(-c5scnc5C)cc4)C(C)(C)C)CC3)cn2)c2ncccc2c1`, the GI50 in test [1] is 1.73 µM; in test [2], 14.9 µM; in test [3] it was 1.98 µM; in test [4], 12 µM; in [6] it was 1.83 µM; in test [7], 3.17 µM. For the same compound, the GI50 was 2.54 µM in test [8] and 1.76 µM in [9]. The TGI is 3.71 µM in [1]; 50.8 µM in [2]; 3.98 µM in test [3]; above 100 µM in [4]; 3.69 µM in test [6]; 11 µM in test [7]. Moreover, the TGI came out at 7.63 µM in test [8] and 3.68 µM in test [9].
